Assay results as given in ChEMBL document CHEMBL3877316, “Synthesis of pharmacologically important naphthoquinones and anticancer activity of 2-benzyllawsone through DNA topoisomerase-II inhibition” (Bioorg Med Chem, 2017).

Assays:
[1] = Antiproliferative activity against human FADU cells after 48 hrs by SRB assay; format: functional, cell-based
[2] = Antiproliferative activity against human A549 cells after 48 hrs by SRB assay; format: functional, cell-based; conditions: A549, 48 h
[3] = Antiproliferative activity against human DU145 cells after 48 hrs by SRB assay; format: functional, cell-based; conditions: DU-145, 48 h
Mus musculus [4] = assay: Acute toxicity in Swiss albino mouse assessed as serum SGOT level at 5 mg/kg, po qd administered as single dose for 7 days (reference value: 34.32 +/- 3.78 U/L); format: organism-based; conditions: in vivo, 168 h
[5] = Antiproliferative activity against HEK293 cells after 48 hrs by SRB assay; format: cell-based; conditions: Homo sapiens, HEK293, 48 h
FaDu = assay: Inhibition of topoisomerase-2 in human FADU cells at 2 times antiproliferative IC50 after 24 hrs by ELISA relative to control; format: cell-based
Mus musculus [6] = assay: Acute toxicity in Swiss albino mouse assessed as changes in posture up to 1000 mg/kg, po qd administered as single dose for 7 days; format: organism-based; conditions: in vivo, 168 h
Mus musculus [7] = assay: Acute toxicity in Swiss albino mouse assessed as changes in response of mouse up to 1000 mg/kg, po qd administered as single dose for 7 days; format: organism-based; conditions: in vivo, 168 h
Mus musculus [8] = assay: Acute toxicity in Swiss albino mouse assessed as changes in absolute weight of liver up to 1000 mg/kg, po qd administered as single dose for 7 days; format: organism-based; conditions: in vivo, 168 h
Mus musculus [9] = assay: Acute toxicity in Swiss albino mouse assessed as changes in relative weight of liver up to 1000 mg/kg, po qd administered as single dose for 7 days; format: organism-based; conditions: in vivo, 168 h
Mus musculus [10] = assay: Acute toxicity in Swiss albino mouse assessed as changes in absolute weight of lungs up to 1000 mg/kg, po qd administered as single dose for 7 days; format: organism-based; conditions: in vivo, 168 h
Mus musculus [11] = assay: Acute toxicity in Swiss albino mouse assessed as changes in absolute weight of brain up to 1000 mg/kg, po qd administered as single dose for 7 days; format: organism-based; conditions: in vivo, 168 h
Mus musculus [12] = assay: Acute toxicity in Swiss albino mouse assessed as changes in absolute weight of kidney up to 1000 mg/kg, po qd administered as single dose for 7 days; format: organism-based; conditions: in vivo, 168 h
Mus musculus [13] = assay: Acute toxicity in Swiss albino mouse assessed as serum haemoglobin level at 5 mg/kg, po qd administered as single dose for 7 days (reference value: 13.29 +/- 0.46 g/dl); format: organism-based; conditions: in vivo, 168 h
Mus musculus [14] = assay: Acute toxicity in Swiss albino mouse assessed as serum haemoglobin level at 50 mg/kg, po qd administered as single dose for 7 days (reference value: 13.29 +/- 0.46 g/dl); format: organism-based; conditions: in vivo, 168 h
Mus musculus [15] = assay: Acute toxicity in Swiss albino mouse assessed as serum haemoglobin level at 300 mg/kg, po qd administered as single dose for 7 days (reference value: 13.29 +/- 0.46 g/dl); format: organism-based; conditions: in vivo, 168 h
Mus musculus [16] = assay: Acute toxicity in Swiss albino mouse assessed as serum RBC level at 50 mg/kg, po qd administered as single dose for 7 days (reference value: 9.07 +/- 1.13 million/mm3); format: organism-based; conditions: in vivo, 168 h
Mus musculus [17] = assay: Acute toxicity in Swiss albino mouse assessed as serum WBC level at 1000 mg/kg, po qd administered as single dose for 7 days (reference value: 8.64 +/- 0.42 10^3/mm3); format: organism-based; conditions: in vivo, 168 h
Mus musculus [18] = assay: Acute toxicity in Swiss albino mouse assessed as serum ALP level at 5 mg/kg, po qd administered as single dose for 7 days (reference value: 292.13 +/- 40.29 U/L); format: organism-based; conditions: in vivo, 168 h
Mus musculus [19] = assay: Acute toxicity in Swiss albino mouse assessed as serum ALP level at 300 mg/kg, po qd administered as single dose for 7 days (reference value: 292.13 +/- 40.29 U/L); format: organism-based; conditions: in vivo, 168 h
Mus musculus [20] = assay: Acute toxicity in Swiss albino mouse assessed as serum SGOT level at 1000 mg/kg, po qd administered as single dose for 7 days (reference value: 34.32 +/- 3.78 U/L); format: organism-based; conditions: in vivo, 168 h
Mus musculus [21] = assay: Acute toxicity in Swiss albino mouse assessed as serum SGPT level at 50 mg/kg, po qd administered as single dose for 7 days (reference value: 23.06 +/- 1.92 U/L); format: organism-based; conditions: in vivo, 168 h
Mus musculus [22] = assay: Acute toxicity in Swiss albino mouse assessed as serum SGPT level at 300 mg/kg, po qd administered as single dose for 7 days (reference value: 23.06 +/- 1.92 U/L); format: organism-based; conditions: in vivo, 168 h
Mus musculus [23] = assay: Acute toxicity in Swiss albino mouse assessed as serum albumin level at 5 mg/kg, po qd administered as single dose for 7 days (reference value: 2.49 +/- 0.17 g/dl); format: organism-based; conditions: in vivo, 168 h
Mus musculus [24] = assay: Acute toxicity in Swiss albino mouse assessed as serum albumin level at 50 mg/kg, po qd administered as single dose for 7 days (reference value: 2.49 +/- 0.17 g/dl); format: organism-based; conditions: in vivo, 168 h
Mus musculus [25] = assay: Acute toxicity in Swiss albino mouse assessed as serum albumin level at 300 mg/kg, po qd administered as single dose for 7 days (reference value: 2.49 +/- 0.17 g/dl); format: organism-based; conditions: in vivo, 168 h
Mus musculus [26] = assay: Acute toxicity in Swiss albino mouse assessed as serum creatinine level at 5 mg/kg, po qd administered as single dose for 7 days (reference value: 0.09 +/- 0.01 mg/dl); format: organism-based; conditions: in vivo, 168 h
Mus musculus [27] = assay: Acute toxicity in Swiss albino mouse assessed as serum creatinine level at 300 mg/kg, po qd administered as single dose for 7 days (reference value: 0.09 +/- 0.01 mg/dl); format: organism-based; conditions: in vivo, 168 h
Mus musculus [28] = assay: Acute toxicity in Swiss albino mouse assessed as serum triglycerides level at 50 mg/kg, po qd administered as single dose for 7 days (reference value: 107.9 +/- 10.7 mg/dl); format: organism-based; conditions: in vivo, 168 h
Mus musculus [29] = assay: Acute toxicity in Swiss albino mouse assessed as serum triglycerides level at 300 mg/kg, po qd administered as single dose for 7 days (reference value: 107.9 +/- 10.7 mg/dl); format: organism-based; conditions: in vivo, 168 h
Mus musculus [30] = assay: Acute toxicity in Swiss albino mouse assessed as serum protein level at 5 mg/kg, po qd administered as single dose for 7 days (reference value: 2.91 +/- 0.31 mg/ml); format: organism-based; conditions: in vivo, 168 h
Mus musculus [31] = assay: Acute toxicity in Swiss albino mouse assessed as serum protein level at 50 mg/kg, po qd administered as single dose for 7 days (reference value: 2.91 +/- 0.31 mg/ml); format: organism-based; conditions: in vivo, 168 h
Mus musculus [32] = assay: Acute toxicity in Swiss albino mouse assessed as serum protein level at 1000 mg/kg, po qd administered as single dose for 7 days (reference value: 2.91 +/- 0.31 mg/ml); format: organism-based; conditions: in vivo, 168 h
Mus musculus [33] = assay: Acute toxicity in Swiss albino mouse assessed as serum cholesterol level at 1000 mg/kg, po qd administered as single dose for 7 days (reference value: 68.37 +/- 4.42 mg/dl); format: organism-based; conditions: in vivo, 168 h
Mus musculus [34] = assay: Acute toxicity in Swiss albino mouse assessed as effect on lymphocyte count up to 1000 mg/kg, po qd administered as single dose for 7 days; format: organism-based; conditions: in vivo, 168 h
Mus musculus [35] = assay: Acute toxicity in Swiss albino mouse assessed as effect on monocyte count up to 1000 mg/kg, po qd administered as single dose for 7 days; format: organism-based; conditions: in vivo, 168 h
Mus musculus [36] = assay: Acute toxicity in Swiss albino mouse assessed as effect on eosinophil count up to 1000 mg/kg, po qd administered as single dose for 7 days; format: organism-based; conditions: in vivo, 168 h

Structure (SMILES): O=C1C=C(OCc2ccccc2)C(=O)c2ccccc21
- IC50 [1]: 5.27 µM
- IC50 [2]: 6.83 µM
- IC50 [3]: 10.6 µM
- Activity (Mus musculus [4]): 38.3 U/L
- IC50 [5]: > 150 µM
- inhibition (FaDu): 36.6%
- Activity (Mus musculus [6]): Non-Toxic
- Activity (Mus musculus [7]): Non-Toxic
- Activity (Mus musculus [8]): Non-Toxic
- Activity (Mus musculus [9]): Non-Toxic
- Activity (Mus musculus [10]): Non-Toxic
- Activity (Mus musculus [11]): Non-Toxic
- Activity (Mus musculus [12]): Non-Toxic
- Activity (Mus musculus [13]): 12.65 g/dL
- Activity (Mus musculus [14]): 13.26 g/dL
- Activity (Mus musculus [15]): 13.42 g/dL
- Activity (Mus musculus [16]): 8.54 million/mm3
- Activity (Mus musculus [17]): 8.7 ×10³ /mm3
- Activity (Mus musculus [18]): 307.74 U/L
- Activity (Mus musculus [19]): 386.48 U/L
- Activity (Mus musculus [20]): 31.68 U/L
- Activity (Mus musculus [21]): 18.02 U/L
- Activity (Mus musculus [22]): 20.48 U/L
- Activity (Mus musculus [23]): 2.56 g/dL
- Activity (Mus musculus [24]): 2.7 g/dL
- Activity (Mus musculus [25]): 2.92 g/dL
- Activity (Mus musculus [26]): 0.14 mg/dL
- Activity (Mus musculus [27]): 0.13 mg/dL
- Activity (Mus musculus [28]): 112.9 mg/dL
- Activity (Mus musculus [29]): 119.3 mg/dL
- Activity (Mus musculus [30]): 2.55 mg/mL
- Activity (Mus musculus [31]): 2.92 mg/mL
- Activity (Mus musculus [32]): 2.95 mg/mL
- Activity (Mus musculus [33]): 51.05 mg/dL
- Activity (Mus musculus [34]): Non-Toxic
- Activity (Mus musculus [35]): Non-Toxic
- Activity (Mus musculus [36]): Non-Toxic
